Laboratory results as given in paper PMC9733406 (ACS nano, 2022).
pKd: −log10 of the molar value. Residues, ends and D or L forms follow the SMILES beside them.

Columns and labels:
bovine serum albumin = experiment: MicroScale Thermophoresis; format: binding; details: MST, FITC-labelled peptide
[1] = molecular target: MMP-2 targeting peptide (FITC-AA-…); experiment: MST

In the case of `CC[C@H](C)[C@H](NC(=O)[C@H](CC(=O)O)NC(=O)[C@H](CC(C)C)NC(=O)[C@H](Cc1ccccc1)NC(=O)[C@H](CCC(=O)O)NC(=O)[C@H](CCC(N)=O)NC(=O)[C@H](CCCCN)NC(=O)[C@@H]1CCCN1C(=O)[C@H](C)NC(=O)[C@H](C)NC(=O)CNC(=O)[C@H](CCCNC(=N)N)NC(=O)[C@H](C)NC(=O)[C@H](C)NC(=S)Nc1ccc2c(c1)C(=O)OC21c2ccc(O)cc2Oc2cc(O)ccc21)C(=O)N[C@@H](CCC(=O)O)C(N)=O` [MMP-2 targeting peptide] (HELM PEPTIDE1{[O=C1OC2(c3ccc(O)cc3Oc3cc(O)ccc32)c2ccc(NC(=S)[*:2])cc21].A.A.R.G.A.A.P.K.Q.E.F.L.D.I.E.[am]}$$$$V2.0), the “nonspecific binding to bovine serum albumin” value (bovine serum albumin) was “does not bind nonspecifically”.

Molecule “recombinant human MMP-2 (from UniProt P08253 30-660) (enzyme)” has a pKd [1] of 7.08.
